In a melting point compilation (Tetko et al.; mined from patent text by program, amines drawn as free bases though some values may be those of a salt):

| SMILES | melting point [°C] |
| --- | --- |
| CCOC(=O)N(Cc1ccc(F)cc1)c1ccc(C(=O)OC)cc1 | 83 to 84 |
| Cn1nc(Br)c([N+](=O)[O-])c1NCCO | 150 |
| O=Cc1ccccc1C=C1c2ccccc2CCc2ccccc21 | 199 |
| CC1S/C(=N/N=C\c2ccc(-c3ncn(-c4ccc(OC(F)(F)F)cc4)n3)cc2)N(c2ccccc2C2CC2)C1=O (stereo not drawn) | 112 to 115 |
| Cc1cnc(-c2ccc(Br)cc2)nc1-c1ccc(Br)cc1 | 136 to 137 |
| Cc1nnc2n1-c1ccc(C#CCN3C(=O)C(=O)c4ccccc43)cc1C(c1ccccc1Cl)=NC2 | 210 to 212 |
| COc1cc2c(Oc3cccc4[nH]ccc34)ncnc2cc1OCCCN1CCCCC1 | 80 to 82 |
| O=C(Nc1cccc(S(=O)(=O)CCO)c1)c1cnn2c(C(F)F)cc(-c3ccc(C(F)(F)F)cc3)nc12 | 205 |
| COc1ccc(-c2ccc3ccc(N)nc3n2)cc1 | 220 |
| C[C@@H](NC(=O)c1ccc[nH]1)C(=O)N[C@H]1CC(=O)O[C@@H]1OCc1ccccc1 | 109 to 112 |
| CCCc1nc(C=O)c[nH]1 | 104 to 106 |
| CCOC(=O)NN1CCc2ccccc2C(Oc2ccc(C(F)(F)F)cc2)C1 (stereo not drawn) | 156 to 157 |
| CN(c1cc(OCCCS(C)(=O)=O)cc2cc(C3=NCC(CN4CCS(=O)CC4)S3)[nH]c12)S(=O)(=O)c1ccccn1 (stereo not drawn) | 107 to 110 |
| O=c1cc(S)oc2ccccc12 | 207 to 208 |
| NNc1ccc(-c2nnn(Cc3ccccc3)n2)cc1 | 182 to 185 |
| Cc1ccc(S(=O)(=O)Nc2ccc(C#N)cc2)cc1 | 182 to 184 |
| COC(=O)C(Cc1ccc(OCCN(C)c2nc3ccccc3o2)cc1)Sc1ccc(C)cc1 (stereo not drawn) | 88.6 to 90.1 |
| CCOC(=O)c1c(C)cc2nc(C)n(-c3ccccc3C)c(=O)c2c1C | 129 to 130 |
| C=C[C@H](C)[C@@](N)(C(N)=O)c1ccccc1 (relative stereo) | 90 |
| CCN1c2ncccc2C(NC)=Nc2c(C)cc(C)nc21 | 128 to 130 |
| CCCOc1ncc(S(C)(=O)=O)cc1-c1nc2c(CC)nn(C[C@@H]3CCCN3C)c2c(=O)[nH]1 | 182 to 183 |
| CCOCc1nc2c(N)nc3ccccc3c2n1CC1(N(C(N)=O)C(C)C)CCCCC1 | 135 to 160 |
| CC(C)(C)OC(=O)Nc1ncc(F)s1 | 157 to 159 |
| CCOC(=O)Cn1c(CC)nc2nc3cc(Cl)ccc3nc21 | 174 to 175 |
| CCOc1cc(N(Cc2cccnc2)c2ccc(C(=O)O)cc2)ccc1OC(F)F | 178 to 179 |

| SMILES | melting point [°C] |
| --- | --- |
| OC(CCN1CCC(c2ccccc2)CC1)c1ccc(Cc2ccc(Cl)cc2)cc1 (stereo not drawn) | 98 to 101 |
| CC(C)c1cn2ccccc2c1S(=O)(=O)c1ccc(O)cc1 | 179 to 180 |
| CCOC(=O)c1c(N2CCN(C(=O)c3cccs3)CC2)c2cnccc2[nH]c1=O | 231 |
| O=C(O)c1cc(=O)c2c(OCC(O)COc3ccc(Cl)cc3)cccc2o1 (stereo not drawn) | 191 to 193 |
| Cc1ccc(C(O[Si](C)(C)C(C)(C)C)C(=O)N2CCOCC2)cc1 (stereo not drawn) | 64 to 65 |
| NS(=O)(=O)c1cc(C(=O)OC[C@@H]2CCCN2N=O)c(NCc2ccco2)cc1Cl | 79 to 81 |
| CCCCn1c(=O)c2c(N(C)C)n[nH]c2n(Cc2ccccc2)c1=O | 177 to 179 |
| Oc1c(Cl)cc(-c2ccco2)cc1Cl | 68 to 70 |
| Cc1ccc2[nH]c(=O)cc(CCO)c2c1 | 252 to 255 |
| CC(C)(C)OC(=O)Cn1c(C(=O)O)cc2cnccc21 | 265 |
| Cc1noc(NS(=O)(=O)c2c(Cl)sc(Cl)c2Br)c1Br | 146 to 149 |
| O=c1ccc([N+](=O)[O-])cn1[C@@H]1c2ccccc2OCC[C@H]1O (relative stereo) | 152 to 155 |
| COc1ccc(Br)c2nc(SCc3ccccc3)nn12 | 78 to 79 |
| N#Cc1cnc2cc(/C=C/c3ccncc3)ccc2c1Nc1ccc(Cl)cc1Cl | 240 to 242 |
| CCCCC#CCCOc1c(I)cc(I)cc1I | 45 to 49 |
| CCNS(=O)(=O)Oc1cc(C(C)(C)C)c(SC2=C(O)CC(CCc3ccc(N)cc3)(CCc3ccc(N)cc3)OC2=O)cc1C | 194 |
| CCC(=O)NC[C@H]1CN(c2ccc3c(c2)CCCc2cnoc2-3)C(=O)O1 | 185 to 186 |
| COC(=O)c1csc(NC(=O)C(CC2CCCC2)c2ccc(Cl)cc2)n1 (stereo not drawn) | 156 to 157 |
| C=C1N(CCC)C(=O)OC12CCN(CC=C(c1ccccc1)c1ccccc1)CC2 | 126 to 127 |
| CCOC(=O)C1C(=O)CC(C)(O)C(C(=O)OCC)C1c1cccc2oc3c(c12)CCCC3 (stereo not drawn) | 155 to 157 |
| O=C(O)Cc1cc(Br)c(S(=O)(=O)c2ccc(O)c(C3CCCC3)c2)c(Br)c1 | 171 to 174 |
| COc1ccc(CN2Cc3cc(OC)c(O)cc3C(OC)C2)cc1 (stereo not drawn) | 84 to 85 |
| Cc1nn(-c2ccc(Cl)c3c2CC(C)O3)c(=O)n1C(F)F (stereo not drawn) | 78 to 79 |
| N#CCc1cccn1Cc1ccccc1 | 62 to 63 |
| CN(C)C=NS(=O)(=O)c1cc(C(=O)c2cc3c(c(Cl)c2Cl)OC(CO)C3)ccc1Cl (stereo not drawn) | 180 to 182 |

| SMILES | melting point [°C] |
| --- | --- |
| CCOC(=O)Nc1cc(N[C@H](C)C(=O)c2ccccc2)c([N+](=O)[O-])c(N)n1 | 150 to 155 |
| CS(=O)(=O)c1ccc(C(=O)c2cnoc2C2CC2)c(Cl)c1 | 116 |
| ClCCCSc1nnnn1-c1ccccc1 | 33 to 34 |
| COc1cc2c(Nc3cc(O)c(Cl)cc3F)c(C#N)cnc2c(OC)c1OC | 223 to 225 |
| O=C(NC1CCC(CCN2CCC(c3cccc4c3CCO4)CC2)CC1)C(O)C(F)(F)F (racemic) | 179 |
| CC(C)(CO)COc1ccc(NC(=O)c2csc3c2CCCC3)cc1C#N | 148 to 150 |
| O=C(CCl)c1ccc2c(c1)Nc1ccccc1S2 | 190 to 191 |
| CC(C)(C)OC(=O)CN1CCSC1=NC#N | 143 to 144 |
| CC(c1ccc(O)cc1)C(CS)C(=O)NC(Cc1ccc(O)cc1)C(=O)O (stereo not drawn) | 115 |
| Cc1c(N2CCN(C=O)C(C)C2)c(F)cc2c(=O)c(C(=O)O)cn(C3CC3)c12 (stereo not drawn) | 236 to 239 |
| O=C1O[C@@H]2C[C@@]1(O)CC[C@H]2O | 212 to 214 |
| CC(C(=O)c1c(O)c2cccnc2n(-c2ccccc2)c1=O)c1ccccc1 (stereo not drawn) | 140 to 151 |
| N#Cc1cc2c(=O)c3ccccc3ccn2c1 | 197 |
| CSc1cc(C)nc(SC)c1NC(=O)CCN1CCN(CCSc2nc3ccccc3o2)CC1 | 110 to 112 |
| NC(=O)c1cccc(-c2ccc3nnn(Cc4ccc5ncccc5c4)c3n2)c1 | 263 to 265 |
| COc1c(O)cc(F)cc1-c1c(Cl)cccc1Cl | 65 to 67 |
| CCOC(=O)c1ccc(NC(=O)Cc2csc3nc(C(=O)NCc4cccc(OC)c4)[nH]c(=O)c23)cc1 | 222 to 223 |
| CCCc1nc(-c2cccnc2)cnc1NN | 162 to 163 |
| COc1cc(C2=Nc3ccc(N4CCOCC4)cc3C(=O)C2)ccc1O | 297 to 299 |
| NCCCc1c[nH]c2ccc3c(=O)[nH]ccc3c12 | 225 to 230 |
| CC(=O)n1ccn(C(C)=O)c1=O | 106 |
| CN(C(=O)c1ccc(Cn2cnc3cnccc32)cc1)C1CCCCC1 | 121 to 123 |
| CN(C(=O)c1ccc2c(c1)nc(NC(=O)c1cccs1)n2CCCC(=O)O)C1CCCCC1 | 256 to 258 |
| Oc1ccc2c(c1)SCCc1c-2n(CCCCCN2CCCCC2)c2ccc(O)cc12 | 195 to 196 |
| COc1cccc(C(=O)Nc2nnn[nH]2)c1[N+](=O)[O-] | 271 |

| SMILES | melting point [°C] |
| --- | --- |
| CSCCC(=N)NS(N)(=O)=O | 88 to 91 |
| CC(C)[C@H](OCc1ccccc1)[C@H]1[C@H]([N+](=O)[O-])[C@H](c2ccccc2)N[C@@H]1C(=O)NCC(=O)O | 71 to 72 |
| CCCn1ncnc1COc1nn2c(-c3ccccc3)nnc2cc1-c1ccccc1 | 211 to 213 |
| O=C(c1ccccc1)c1cc2c(cc1O)C(C(=O)O)CC2 (stereo not drawn) | 185 to 187 |
| COC(=O)c1ccc2cc(-c3ccc(C(=O)OC)c(C45CC6CC(CC(C6)C4)C5)c3)ccc2c1 | 181 to 182 |
| CCCC(=O)c1cnc2c(OC)cccc2c1Nc1ccc(OC)cc1C | 161 to 163 |
| Cc1ccc(Oc2ccc(-n3cccc3)cc2)c(O)c1 | 95 to 96 |
| CCCc1ccc(OC)c(-c2csc(NC(=O)NN3CCN(CCCN4CCOCC4)CC3)n2)c1 | 229 |
| CCCCCCCCCCCCn1nnc(NC(=O)CS(=O)(=O)Nc2c(C(C)C)cccc2C(C)C)n1 | 138 to 140 |
| CC(Cc1cccc([N+](=O)[O-])c1)[N+](=O)[O-] (stereo not drawn) | 56 to 58 |
| CCNc1cccnc1N1CCN(C(=O)c2ccc(C(=O)NC(C)(C)CO)cn2)CC1 | 128 to 130 |
| CCCc1nc(C(C)(O)CC)c(C#N)n1Cc1ccc(-c2ccccc2-c2nnn[nH]2)cc1 (stereo not drawn) | 141 to 145 |
| Cc1cc(Cl)nc(N(C(N)=O)c2ccccc2[N+](=O)[O-])n1 | 155 |
| CC1=C(CCO)c2cc(F)ccc2/C1=C\c1ccc(S(C)(=O)=O)cc1 | 118 |
| CCN(C(=O)C(C)CSC(c1ccccc1)(c1ccccc1)c1ccccc1)c1cn(-c2cccnc2)nc1Cl (stereo not drawn) | 64 to 66 |
| Cc1ccccc1-n1c(C=Cc2ccccn2)nc2ccsc2c1=O | 203 |
| Nc1ccc(-c2cccc([N+](=O)[O-])c2)cc1O | 175 to 176 |
| CCOc1nc2ccccc2nc1NC(=O)N1CCN(C(c2ccccc2)c2ccccc2)CC1 | 156 to 158 |
| CC(C)(C)OC(=O)Nc1ccc(-c2ccc(OCc3ccccc3)nc2)cc1N | 176 to 177 |
| Cc1cc2cn[nH]c2c(C(=O)NC(C)C)c1NC(=O)c1cc(C(F)F)nn1-c1ncccc1Cl | 250 to 253 |
| CCCc1nc2c(N)nc3cc(-c4ccccc4)ccc3c2n1CCCON=C(C)C | 164 to 165 |
| CCOC(=O)c1cc(NCc2ccccc2)c(Oc2ccc(OCc3ccccc3)cc2)c(S(N)(=O)=O)c1 | 166 |
| OCCNCCNCc1ccc(-c2cc3ncnc(Nc4ccc5[nH]ccc5c4)c3s2)cc1 | 78 to 95 |
